According to ChEMBL document CHEMBL5532698, “2,3-Dihydroquinazolin-4(1H)-ones and quinazolin-4(3H)-ones as broad-spectrum cytotoxic agents and their impact on tubulin polymerisation” (RSC Med Chem, 2024):
Each block holds one compound with its values, some of them ahead of it. Calls of active or inactive are those of the source. The calls are words filed in the database; no cut-off is given here.

Assays:
[1] = test system: MIA PaCa-2; test: Induction of G2/M phase cell cycle arrest in human MIA PaCa-2 cells at 0.5 uM incubated for 24 hrs by PI/RNase staining based analysis (reference value: 20 +/- 1%); type: functional
[2] = test system: MIA PaCa-2; test: Induction of G2/M phase cell cycle arrest in human MIA PaCa-2 cells assessed as S phase cells at 0.1 uM incubated for 24 hrs by PI/RNase staining based analysis (reference value: 11 +/- 1%); type: functional
[3] = test system: HCT-116; test: Antiproliferative activity against human HCT-116 cells assessed as reduction in cell viability incubated for 48 hrs by MTT assay; type: functional, cell-based; conditions: HCT-116, 48 h
[4] = test system: HeLa; test: Antiproliferative activity against human HeLa cells assessed as reduction in cell viability incubated for 48 hrs by MTT assay; type: functional, cell-based
[5] = test system: MIA PaCa-2; test: Induction of G2/M phase cell cycle arrest in human MIA PaCa-2 cells assessed as sub G1 phase cells at 0.5 uM incubated for 24 hrs by PI/RNase staining based analysis (reference value: 4 +/- 2%); type: functional
[6] = test system: MIA PaCa-2; test: Induction of G2/M phase cell cycle arrest in human MIA PaCa-2 cells assessed as sub G1 phase cells at 0.1 uM incubated for 24 hrs by PI/RNase staining based analysis (reference value: 4 +/- 2%); type: functional
[7] = test system: MIA PaCa-2; test: Induction of G2/M phase cell cycle arrest in human MIA PaCa-2 cells at 0.1 uM incubated for 24 hrs by PI/RNase staining based analysis (reference value: 20 +/- 1%); type: functional
[8] = biological target: Tubulin (Homo sapiens) (UniProt P68371+Q9H4B7+P0DPH7+P68366+Q13509+Q71U36+P04350+Q3ZCM7+P07437+P68363+Q9BQE3+Q6PEY2+Q13885+Q9BVA1+Q9BUF5); test: Inhibition of tubulin (unknown origin) polymerization assessed as reduction microtubule formation at 10 uM by fluorometric analysis; type: protein-complex assay
[9] = test system: HepG2; test: Antiproliferative activity against human HepG2 cells assessed as reduction in cell viability incubated for 48 hrs by MTT assay; type: functional, cell-based; conditions: HepG2, 48 h
[10] = test system: MIA PaCa-2; test: Induction of G2/M phase cell cycle arrest in human MIA PaCa-2 cells assessed as S phase cells at 0.5 uM incubated for 24 hrs by PI/RNase staining based analysis (reference value: 11 +/- 1%); type: functional
[11] = test system: WRL68; test: Antiproliferative activity against human WRL68 cells assessed as reduction in cell viability incubated for 48 hrs by MTT assay; type: functional, cell-based; conditions: WRL68, 48 h
[12] = test system: MIA PaCa-2; test: Induction of G2/M phase cell cycle arrest in human MIA PaCa-2 cells assessed as G1 phase cells at 0.1 uM incubated for 24 hrs by PI/RNase staining based analysis (reference value: 66 +/- 2%); type: functional
[13] = test system: MIA PaCa-2; test: Induction of G2/M phase cell cycle arrest in human MIA PaCa-2 cells assessed as G1 phase cells at 0.5 uM incubated for 24 hrs by PI/RNase staining based analysis (reference value: 66 +/- 2%); type: functional
[14] = test system: A549; test: Antiproliferative activity against human A549 cells assessed as reduction in cell viability incubated for 48 hrs by MTT assay; type: functional, cell-based; conditions: A549, 48 h
[15] = test system: HT-29; test: Antiproliferative activity against human HT-29 cells assessed as cell growth inhibition at 25 uM incubated for 72 hrs by MTT assay relative to control; type: functional
[16] = test system: MIA PaCa-2; test: Induction of G2/M phase cell cycle arrest in human MIA PaCa-2 cells assessed as sub G1 phase cells at 5 uM incubated for 24 hrs by PI/RNase staining based analysis (reference value: 4 +/- 2%); type: functional
[17] = test system: MIA PaCa-2; test: Induction of G2/M phase cell cycle arrest in human MIA PaCa-2 cells assessed as S phase cells at 1.0 uM incubated for 24 hrs by PI/RNase staining based analysis (reference value: 11 +/- 1%); type: functional
[18] = test system: MIA PaCa-2; test: Antiproliferative activity against human MIA PaCa-2 cells assessed as cell growth inhibition at 25 uM incubated for 72 hrs by MTT assay relative to control; type: functional
[19] = test system: DU-145; test: Antiproliferative activity against human DU-145 cells assessed as cell growth inhibition at 25 uM incubated for 72 hrs by MTT assay relative to control; type: functional
[20] = test system: MIA PaCa-2; test: Antiproliferative activity against human MIA PaCa-2 cells assessed as cell growth inhibition incubated for 72 hrs by MTT assay; type: functional
[21] = test system: NCI-H460; test: Antiproliferative activity against human NCI-H460 cells assessed as cell growth inhibition at 25 uM incubated for 72 hrs by MTT assay relative to control; type: functional
[22] = test system: MIA PaCa-2; test: Induction of G2/M phase cell cycle arrest in human MIA PaCa-2 cells assessed as sub G1 phase cells at 1.0 uM incubated for 24 hrs by PI/RNase staining based analysis (reference value: 4 +/- 2%); type: functional
[23] = test system: A-431; test: Antiproliferative activity against human A-431 cells assessed as cell growth inhibition at 25 uM incubated for 72 hrs by MTT assay relative to control; type: functional
[24] = test system: A2780; test: Antiproliferative activity against human A2780 cells assessed as cell growth inhibition incubated for 72 hrs by MTT assay; type: functional
[25] = test system: NCI-H460; test: Antiproliferative activity against human NCI-H460 cells assessed as cell growth inhibition incubated for 72 hrs by MTT assay; type: functional
[26] = test system: DU-145; test: Antiproliferative activity against human DU-145 cells assessed as cell growth inhibition incubated for 72 hrs by MTT assay; type: functional
[27] = test system: BE(2)-C; test: Antiproliferative activity against human BE2C cells assessed as cell growth inhibition incubated for 72 hrs by MTT assay; type: functional
[28] = test system: MIA PaCa-2; test: Induction of G2/M phase cell cycle arrest in human MIA PaCa-2 cells at 1.0 uM incubated for 24 hrs by PI/RNase staining based analysis (reference value: 20 +/- 1%); type: functional
[29] = Cytotoxicity against human MCF-10A cells assessed as cell growth inhibition at 25 uM incubated for 72 hrs by MTT assay relative to control; type: toxicity, cell-based
[30] = test system: MIA PaCa-2; test: Induction of G2/M phase cell cycle arrest in human MIA PaCa-2 cells assessed as S phase cells at 5 uM incubated for 24 hrs by PI/RNase staining based analysis (reference value: 11 +/- 1%); type: functional
[31] = test system: MCF7; test: Antiproliferative activity against human MCF7 cells assessed as cell growth inhibition at 25 uM incubated for 72 hrs by MTT assay relative to control; type: functional
[32] = test system: MCF7; test: Antiproliferative activity against human MCF7 cells assessed as cell growth inhibition incubated for 72 hrs by MTT assay; type: functional
[33] = test system: U-87 MG; test: Antiproliferative activity against human U87 cells assessed as cell growth inhibition incubated for 72 hrs by MTT assay; type: functional, U-87MG ATCC
[34] = test system: HT-29; test: Antiproliferative activity against human HT-29 cells assessed as cell growth inhibition incubated for 72 hrs by MTT assay; type: functional
[35] = test system: A-431; test: Antiproliferative activity against human A-431 cells assessed as cell growth inhibition incubated for 72 hrs by MTT assay; type: functional
[36] = test system: U-87 MG; test: Antiproliferative activity against human U87 cells assessed as cell growth inhibition at 25 uM incubated for 72 hrs by MTT assay relative to control; type: functional, U-87MG ATCC
[37] = test system: MIA PaCa-2; test: Induction of G2/M phase cell cycle arrest in human MIA PaCa-2 cells assessed as G1 phase cells at 5 uM incubated for 24 hrs by PI/RNase staining based analysis (reference value: 66 +/- 2%); type: functional
[38] = Antiproliferative activity against human SJG2 cells assessed as cell growth inhibition at 25 uM incubated for 72 hrs by MTT assay relative to control; type: functional; conditions: SJ-G2
[39] = Antiproliferative activity against human SJG2 cells assessed as cell growth inhibition incubated for 72 hrs by MTT assay; type: functional; conditions: SJ-G2
[40] = test system: MIA PaCa-2; test: Induction of G2/M phase cell cycle arrest in human MIA PaCa-2 cells assessed as G1 phase cells at 1.0 uM incubated for 24 hrs by PI/RNase staining based analysis (reference value: 66 +/- 2%); type: functional
[41] = test system: BE(2)-C; test: Antiproliferative activity against human BE2C cells assessed as cell growth inhibition at 25 uM incubated for 72 hrs by MTT assay relative to control; type: functional
[42] = Cytotoxicity against human MCF-10A cells assessed as cell growth inhibition incubated for 72 hrs by MTT assay; type: toxicity, cell-based
[43] = test system: A2780; test: Antiproliferative activity against human A2780 cells assessed as cell growth inhibition at 25 uM incubated for 72 hrs by MTT assay relative to control; type: functional
[44] = test system: MIA PaCa-2; test: Induction of G2/M phase cell cycle arrest in human MIA PaCa-2 cells at 5 uM incubated for 24 hrs by PI/RNase staining based analysis (reference value: 20 +/- 1%); type: functional

Compound: COC(=O)Nc1nc2cc(C(=O)c3cccs3)ccc2[nH]1 [NOCODAZOLE]
- Activity [1]: 60%
- Activity [2]: 8%
- IC50 [3]: 1810 nM
- IC50 [4]: 2220 nM
- Activity [5]: 14%
- Activity [6]: 21%
- Activity [7]: 37%
- inhibition [8]: Active
- IC50 [9]: 5080 nM
- Activity [10]: 9%
- IC50 [11]: 7560 nM
- Activity [12]: 34%
- Activity [13]: 16%
- IC50 [14]: 5090 nM

- GI50 [20]: 370 nM
- GI50 [24]: 330 nM
- GI50 [25]: 420 nM
- inhibition [8]: Active
- GI50 [26]: 900 nM
- GI50 [32]: 350 nM
- GI50 [33]: 1400 nM
- GI50 [34]: 260 nM
- GI50 [35]: 330 nM
Compound: COc1ccccc1/C=C/c1nc2ccccc2c(=O)[nH]1
- inhibition at 25 µM [15]: > 100%
- Activity [16]: 6%
- Activity [17]: 12%
- inhibition at 25 µM [18]: > 100%
- inhibition at 25 µM [19]: > 100%
- inhibition at 25 µM [21]: > 100%
- Activity [22]: 5%
- inhibition at 25 µM [23]: > 100%
- GI50 [27]: 310 nM
- Activity [28]: 27%
- inhibition at 72 h, 25 µM [29]: > 100%
- Activity [30]: 6%
- inhibition at 25 µM [31]: > 100%
- inhibition at 25 µM [36]: > 100%
- Activity [37]: 10%
- inhibition at 25 µM [38]: > 100%
- GI50 [39]: 790 nM
- Activity [40]: 56%
- inhibition at 25 µM [41]: > 100%
- GI50 at 72 h [42]: 560 nM
- inhibition at 25 µM [43]: > 100%
- Activity [44]: 78%
